# What was measured:
# M. tuberculosis = settings: both in vitro and in vivo; cited from earlier work
# deadenylylated MtbGS = biological target: T1, deadenylylated MtbGS (Mycobacterium tuberculosis, UniProt P9WN39); assay: biochemical; set-up: species or system M. tuberculosis
# T1 construct: made in house; host or cells: E. coli YMC11E with pTBSK
# adenylylated MtbGS = biological target: T2, adenylylated MtbGS (Mycobacterium tuberculosis, UniProt P9WN39); assay: biochemical; format: biochemical, M. tuberculosis
# T2 construct: made in house; host or cells: E. coli YMC11E(DE3) with pTBSK and pTBglnE
# [1] = test system: M.tb (Beijing220) clinical isolate; settings: cited from earlier work
# [2] = test system: M.tb H37Rv reference strain (ATCC 25618); set-up: method as in PMID 9145860; settings: approximately 10x higher than the minimal inhibitory concentrations; cited from earlier work
# T2 sequence (P9WN39 2-478 limits assumed): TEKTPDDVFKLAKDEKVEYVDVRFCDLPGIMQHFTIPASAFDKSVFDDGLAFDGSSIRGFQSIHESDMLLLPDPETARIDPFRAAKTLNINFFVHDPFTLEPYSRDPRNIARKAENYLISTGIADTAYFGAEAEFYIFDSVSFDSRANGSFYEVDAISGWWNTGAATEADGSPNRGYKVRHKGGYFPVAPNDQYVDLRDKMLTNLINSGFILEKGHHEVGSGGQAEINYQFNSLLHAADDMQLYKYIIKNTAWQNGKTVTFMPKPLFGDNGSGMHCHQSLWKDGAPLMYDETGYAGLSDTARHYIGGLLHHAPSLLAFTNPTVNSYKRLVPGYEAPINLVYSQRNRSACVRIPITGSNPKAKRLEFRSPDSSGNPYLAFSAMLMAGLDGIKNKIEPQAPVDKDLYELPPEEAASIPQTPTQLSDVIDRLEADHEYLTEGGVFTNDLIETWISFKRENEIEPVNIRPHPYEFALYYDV
# T1 sequence (P9WN39 2-478 limits assumed): as above
SMILES,Growth of M. tuberculosis (M. tuberculosis),Deadenylated Mtb GS (% inhibition) AVG (deadenylylated MtbGS),Deadenylated Mtb GS (% inhibition) Screen 1 (deadenylylated MtbGS),Deadenylated Mtb GS (% inhibition) Screen 2 (deadenylylated MtbGS),Deadenylated Mtb GS (% inhibition) Screen 3 (deadenylylated MtbGS),Deadenylated Mtb GS (% inhibition) Screen 4 (deadenylylated MtbGS),IC50 (deadenylylated MtbGS),Adenylated Mtb GS (% inhibition) AVG (adenylylated MtbGS),Adenylated Mtb GS (% inhibition) Screen 1 (adenylylated MtbGS),Adenylated Mtb GS (% inhibition) Screen 2 (adenylylated MtbGS),Adenylated Mtb GS (% inhibition) Screen 3 (adenylylated MtbGS),Adenylated Mtb GS (% inhibition) Screen 4 (adenylylated MtbGS),"IC50 (adenylylated MtbGS; read-out: IC50, adenylylated MtbGS)",Susceptibility of the Beijing220 clinical isolate [1],Breakpoint concentration to which the H37Rv strain was sensitive [2]
"CS(=N)(=O)CC[C@H](N)C(=O)O (stereo partly drawn) [MSO, L-methionine-S,R-sulphoximine, reference compound]",inhibits growth,100%,100%,100%,99%,100%,1600 nM,99%,100%,100%,96%,100%,160 nM,,
CO[C@H]1/C=C/O[C@@]2(C)Oc3c(C)c(O)c4c(O)c(c(/C=N/N5CCN(C)CC5)c(O)c4c3C2=O)NC(=O)/C(C)=C\C=C\[C@H](C)[C@H](O)[C@@H](C)[C@@H](O)[C@@H](C)[C@H](OC(C)=O)[C@@H]1C [rifampicin],,,,,,,,,,,,,,resistant,2.0 µg/mL

# — article PMC5626031, “Differential inhibition of adenylylated and deadenylylated forms of M. tuberculosis glutamine synthetase as a drug discovery platform” (PLoS ONE, 2017)
